Results reported in ChEMBL document CHEMBL1201862, “PubChem BioAssay data set” (2004).
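Dose response: 5 concentrations. Exposure: 48 h. Format: 96-well plates. Endpoint: linear interpolation; highest concentration if not reached. Abbreviation: GI50, concentration required for 50% inhibition of growth.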 Activity calls are given as the source filed them. No stated cut-off is given here; in the data, active = GI50 up to about 1.1 µM and inactive = higher.

How the values were obtained:
Experiment in all cases: growth of human tumour cells (NCI), 48 h
ACHN = system: ACHN
SK-OV-3 = system: SK-OV-3
Malme-3M = system: Malme-3M
UACC-62 = system: UACC-62
SR = system: SR
SNB-19 = system: SNB-19
HCC 2998 = system: HCC 2998
OVCAR-8 = system: OVCAR-8
NCI-H23 = system: NCI-H23
IGROV-1 = system: IGROV-1
SK-MEL-28 = system: SK-MEL-28
PC-3 = system: PC-3
A498 = system: A498
M14 = system: M14
UO-31 = system: UO-31
OVCAR-3 = system: OVCAR-3
COLO 205 = system: COLO 205
MOLT-4 = system: MOLT-4
SK-MEL-2 = system: SK-MEL-2
U-251 = system: U-251

SMILES | GI50 (ACHN) | GI50 (SK-OV-3) | GI50 (Malme-3M) | GI50 (UACC-62) | GI50 (SR) | GI50 (SNB-19) | GI50 (HCC 2998) | GI50 (OVCAR-8) | GI50 (NCI-H23) | GI50 (IGROV-1) | GI50 (SK-MEL-28) | GI50 (PC-3) | GI50 (A498) | GI50 (M14) | GI50 (UO-31) | GI50 (OVCAR-3) | GI50 (COLO 205) | GI50 (MOLT-4) | GI50 (SK-MEL-2) | GI50 (U-251)
Cc1ccc2c(c1)OC1Nc3ccccc3C1=C2O (stereo not given) | 21.4 µM (inactive) | 13.9 µM (inactive) | 74.8 µM (inactive) | 15.9 µM (inactive) | 31.2 µM (inactive) | 31.6 µM (inactive) | 14.2 µM (inactive) | 35 µM (inactive) | 23.7 µM (inactive) | 29.9 µM (inactive) | 53.7 µM (inactive) | 16.3 µM (inactive) | 15.5 µM (inactive) | 21.5 µM (inactive) | 21.2 µM (inactive) | 3.86 µM (inactive) | 14.8 µM (inactive) | 32.1 µM (inactive) | 16.9 µM (inactive) | 20.4 µM (inactive)
Cc1cnc(NCCCN(C)C)c2c1[nH]c1ccc3cc(O)ccc3c12 | 0.552 µM (active) | 0.569 µM (active) | 0.879 µM (active) | 0.678 µM (active) | 0.0617 µM (active) | 0.48 µM (active) | 0.326 µM (active) | 0.2 µM (active) | 0.499 µM (active) | 1.19 µM (inactive) | 1.39 µM (inactive) | 0.585 µM (active) | 1.56 µM (inactive) | 1.28 µM (inactive) | 2.03 µM (inactive) | 0.505 µM (active) | 0.244 µM (active) | 0.0181 µM (active) | 1.03 µM (active) | 0.164 µM (active)
CSC(=N\c1ccccc1)/N=C(\SCc1ccccc1)N(C)C | 1 µM (active) | 3.24 µM (inactive) | 1.14 µM (inactive) | 0.555 µM (active) | 0.16 µM (active) | 1.39 µM (inactive) | 0.359 µM (active) | 1.2 µM (inactive) | 1.24 µM (inactive) | 0.923 µM (active) | 0.581 µM (active) | 1.29 µM (inactive) | 1.65 µM (inactive) | 0.789 µM (active) | 1.46 µM (inactive) | 0.869 µM (active) | 0.407 µM (active) | 0.382 µM (active) | 1.87 µM (inactive) | 1.12 µM (inactive)
C=C1CC2(CC(c3ccccc3OC)OC(c3ccccc3OC)C2)OC1=O (stereo not given) | 2.29 µM (inactive) | 12.8 µM (inactive) | 1.72 µM (inactive) | 2.18 µM (inactive) | 1.84 µM (inactive) | 7.55 µM (inactive) | 2.49 µM (inactive) | 1.8 µM (inactive) | 2.1 µM (inactive) | 1.74 µM (inactive) | 1.45 µM (inactive) | 2.06 µM (inactive) | 5.81 µM (inactive) | 1.72 µM (inactive) | 1.52 µM (inactive) | 1.87 µM (inactive) | 2.36 µM (inactive) | 2.07 µM (inactive) | 1.91 µM (inactive) | 7.16 µM (inactive)
COC1N(C2CC(O)C(CO)O2)C(=O)NC(=O)C1(F)Br (stereo not given) | 1.88 µM (inactive) | > 50 µM (inactive) | 15.1 µM (inactive) | 4.27 µM (inactive) | 6.18 µM (inactive) | 41.2 µM (inactive) | 0.887 µM (active) | 4.02 µM (inactive) | 6.73 µM (inactive) | 14.1 µM (inactive) | 9.86 µM (inactive) | 51.3 µM (inactive) | 9.29 µM (inactive) | 15 µM (inactive) | 10.3 µM (inactive) | 10.7 µM (inactive) | 21.6 µM (inactive) | 11 µM (inactive) | > 92 µM (inactive) | 23.9 µM (inactive)
COc1ccc(C2C(C)C(=O)C(C)C(c3ccc(OC)cc3)N2N=O)cc1 (stereo not given) | 175 µM (inactive) | 257 µM (inactive) | > 537 µM (inactive) | > 506 µM (inactive) | > 685 µM (inactive) | 195 µM (inactive) | > 750 µM (inactive) | 340 µM (inactive) | 261 µM (inactive) | 165 µM (inactive) | > 640 µM (inactive) | 253 µM (inactive) | 203 µM (inactive) | 537 µM (inactive) | 495 µM (inactive) | 454 µM (inactive) | > 550 µM (inactive) | > 789 µM (inactive) | 215 µM (inactive) | 117 µM (inactive)
C=C(C)C12CC3CC/C(=N/O)C(C1)C3(N1CCOCC1)C/C2=N/O (stereo not given) | > 100 µM (inactive) | > 100 µM (inactive) | > 100 µM (inactive) | > 100 µM (inactive) | > 100 µM (inactive) | > 100 µM (inactive) | > 100 µM (inactive) | > 100 µM (inactive) | > 100 µM (inactive) | > 100 µM (inactive) | > 100 µM (inactive) | > 100 µM (inactive) | > 100 µM (inactive) | > 100 µM (inactive) | > 100 µM (inactive) | > 100 µM (inactive) | > 100 µM (inactive) | > 100 µM (inactive) | > 100 µM (inactive) | > 100 µM (inactive)
OC1(c2ccccc2)C2CCN(CC2)C1CN1CCOCC1 (stereo not given) | > 100 µM (inactive) | > 100 µM (inactive) | > 100 µM (inactive) | > 100 µM (inactive) | > 100 µM (inactive) | > 100 µM (inactive) | > 100 µM (inactive) | > 100 µM (inactive) | > 100 µM (inactive) | > 100 µM (inactive) | > 100 µM (inactive) | > 100 µM (inactive) | > 100 µM (inactive) | > 100 µM (inactive) | > 100 µM (inactive) | > 100 µM (inactive) | > 100 µM (inactive) | > 100 µM (inactive) | > 100 µM (inactive) | > 100 µM (inactive)
